Calls of active or inactive are those of the source.
Assays:
[1] = molecular target: Voltage-gated inwardly rectifying potassium channel KCNH2 (Homo sapiens, UniProt Q12809); settings: Potency;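 further: confirmatory quantitative high-throughput screen measuring inhibition of hERG channel activity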
[2] = molecular target: Glycogen synthase kinase-3 alpha (Homo sapiens, UniProt P49840); assay: Inhibition of Human GSK-3 alpha Activity Measured in Biochemical System Using Microfluidics - 2063-06_Inhibitor_Dose_DryPowder_Activity. [Related pubchem assays (depositor defined):AID2709]
Chain of Glycogen synthase kinase-3 alpha (P49840 whole entry): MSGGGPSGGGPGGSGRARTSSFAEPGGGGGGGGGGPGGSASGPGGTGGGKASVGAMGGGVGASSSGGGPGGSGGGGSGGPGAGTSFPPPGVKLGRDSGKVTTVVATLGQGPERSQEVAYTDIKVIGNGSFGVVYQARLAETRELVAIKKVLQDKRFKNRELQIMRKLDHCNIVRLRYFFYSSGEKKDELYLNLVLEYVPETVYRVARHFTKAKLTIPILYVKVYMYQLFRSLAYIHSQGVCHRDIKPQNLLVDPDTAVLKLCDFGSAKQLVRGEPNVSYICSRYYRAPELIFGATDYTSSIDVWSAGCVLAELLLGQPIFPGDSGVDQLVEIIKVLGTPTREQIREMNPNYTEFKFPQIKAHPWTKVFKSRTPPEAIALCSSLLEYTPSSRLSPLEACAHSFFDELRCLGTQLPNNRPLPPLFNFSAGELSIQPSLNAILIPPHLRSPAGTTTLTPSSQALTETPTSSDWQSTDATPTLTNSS

[3] = molecular target: Glycogen synthase kinase-3 beta (Homo sapiens, UniProt P49841); assay: Inhibition of Human GSK-3 beta Activity Measured in Biochemical System Using Microfluidics - 2063-05_Inhibitor_Dose_DryPowder_Activity. [Related pubchem assays (depositor defined):AID2709]
Chain of Glycogen synthase kinase-3 beta (P49841 whole entry): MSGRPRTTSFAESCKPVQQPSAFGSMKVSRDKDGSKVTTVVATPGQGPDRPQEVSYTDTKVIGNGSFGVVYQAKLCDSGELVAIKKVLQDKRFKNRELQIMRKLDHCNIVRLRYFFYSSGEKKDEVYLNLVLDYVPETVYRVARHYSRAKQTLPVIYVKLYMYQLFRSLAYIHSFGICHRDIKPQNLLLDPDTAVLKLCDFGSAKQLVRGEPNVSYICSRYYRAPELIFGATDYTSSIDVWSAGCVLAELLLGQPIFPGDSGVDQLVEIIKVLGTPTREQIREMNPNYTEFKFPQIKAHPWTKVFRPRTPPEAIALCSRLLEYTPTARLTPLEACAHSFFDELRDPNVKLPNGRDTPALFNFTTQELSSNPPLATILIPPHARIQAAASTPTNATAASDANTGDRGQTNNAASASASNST

Candida albicans = assay: reversal of fluconazole resistance in C. albicans, dose response, CaCi-2 strain, Alamar Blue, dry powder, set 3 (AID 488907); assay type: functional, organism-based
[4] = molecular target: T1, C-C chemokine receptor type 6 (Homo sapiens, UniProt P51684); assay: CCR6 receptor antagonists, dose response, cell-based, luminescent beta-arrestin readout (AID 504728); assay type: functional
T1 sequence (P51684 whole entry): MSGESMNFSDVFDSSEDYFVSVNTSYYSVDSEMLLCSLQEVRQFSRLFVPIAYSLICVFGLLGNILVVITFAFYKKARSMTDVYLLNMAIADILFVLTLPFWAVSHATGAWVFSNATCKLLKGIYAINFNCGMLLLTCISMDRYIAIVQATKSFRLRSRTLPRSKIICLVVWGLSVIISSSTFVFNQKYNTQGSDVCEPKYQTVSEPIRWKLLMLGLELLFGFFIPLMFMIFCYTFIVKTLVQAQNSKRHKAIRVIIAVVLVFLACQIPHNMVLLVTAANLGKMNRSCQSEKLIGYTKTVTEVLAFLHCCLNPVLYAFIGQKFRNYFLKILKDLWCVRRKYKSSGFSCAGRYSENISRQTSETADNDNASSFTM

Beta-galactosidase = Beta-galactosidase (Escherichia coli, UniProt Q8VNN2); assay: beta-galactosidase enzyme inhibitors and activators, dose response, artefact control for CCR6 antagonist project, biochemical, E. coli enzyme, set 3 (AID 504712); assay type: functional
[5] = molecular target: T2, Heat shock factor protein 1 (Mus musculus, UniProt P38532); assay: HSF1 potentiators in luciferase reporter cells, confirmation, cell-based, NIH3T3, luminescence, dose retest (AID 435004); assay type: functional;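 further: stress induced by proteasome inhibitor MG132 added 30 min after compound; luciferase reporter driven by HSF1 response element in NIH3T3 cells; actives raise luminescence as potentiators of the MG132 stress response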
T2 sequence (P38532 whole entry): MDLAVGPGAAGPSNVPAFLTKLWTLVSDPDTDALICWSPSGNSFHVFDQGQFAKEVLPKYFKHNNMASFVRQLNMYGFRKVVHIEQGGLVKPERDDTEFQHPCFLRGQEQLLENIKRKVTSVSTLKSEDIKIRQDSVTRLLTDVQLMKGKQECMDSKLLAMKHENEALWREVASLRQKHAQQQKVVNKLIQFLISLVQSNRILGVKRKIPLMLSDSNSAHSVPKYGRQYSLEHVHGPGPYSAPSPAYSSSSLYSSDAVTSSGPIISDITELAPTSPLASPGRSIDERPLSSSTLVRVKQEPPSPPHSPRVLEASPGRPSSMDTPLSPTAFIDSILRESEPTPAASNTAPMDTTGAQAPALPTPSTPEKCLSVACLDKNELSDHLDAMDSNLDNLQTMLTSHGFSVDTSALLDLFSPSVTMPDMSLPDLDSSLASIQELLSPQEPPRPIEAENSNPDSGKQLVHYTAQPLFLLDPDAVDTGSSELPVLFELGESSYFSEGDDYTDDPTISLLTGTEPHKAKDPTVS

Apelin receptor = Apelin receptor (Homo sapiens, UniProt P35414); assay: APJ beta-arrestin recruitment antagonism, SAR follow-up, selectivity assay for CCR6 antagonist project, cell-based, luminescent, enzyme-fragment complementation (AID 588359); assay type: functional
[6] = molecular target: C-X-C chemokine receptor type 5 (Homo sapiens, UniProt P32302); assay: CXCR5 receptor antagonists, SAR follow-up, selectivity assay for CCR6 antagonist project, cell-based, beta-arrestin, luminescence, CHO-K1 PathHunter (AID 540340); assay type: functional
Chain of C-X-C chemokine receptor type 5 (P32302 whole entry): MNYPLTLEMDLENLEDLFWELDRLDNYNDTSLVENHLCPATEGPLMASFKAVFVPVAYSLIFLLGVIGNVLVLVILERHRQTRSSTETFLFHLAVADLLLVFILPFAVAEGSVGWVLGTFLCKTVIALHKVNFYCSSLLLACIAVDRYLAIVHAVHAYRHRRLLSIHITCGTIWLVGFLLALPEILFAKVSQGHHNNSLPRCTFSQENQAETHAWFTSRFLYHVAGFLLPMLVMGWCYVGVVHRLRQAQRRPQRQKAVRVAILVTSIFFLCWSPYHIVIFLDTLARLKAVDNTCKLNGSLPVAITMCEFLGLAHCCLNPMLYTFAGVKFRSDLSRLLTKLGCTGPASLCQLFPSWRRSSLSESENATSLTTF

[7] = molecular target: T1, C-C chemokine receptor type 6; assay: CCR6 receptor antagonists, SAR follow-up, cell-based, luminescent beta-arrestin readout (AID 540334); assay type: functional
[8] = molecular target: T3, Endoribonuclease toxin MazF (Escherichia coli K-12, UniProt P0AE70); assay: MazF toxin RNase activators, dose response, biochemical, fluorescence, single-stranded RNA substrate, uHTS hits (AID 588481); assay type: functional
T3 sequence (P0AE70 whole entry): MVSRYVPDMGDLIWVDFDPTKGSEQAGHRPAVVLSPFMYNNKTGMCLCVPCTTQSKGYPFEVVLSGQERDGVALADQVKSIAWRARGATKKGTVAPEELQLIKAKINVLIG

[9] = molecular target: T3, Endoribonuclease toxin MazF; assay: fluorescent RNA oligo signal without MazF, dose response, counter-screen for MazEF activator project, biochemical, fluorescence, single-stranded RNase substrate (AID 588502); assay type: functional
[10] = molecular target: T4, E3 ubiquitin-protein ligase XIAP (Homo sapiens, UniProt P98170); assay: Counter Screen using XIAP-Bir3 for Chemical Antagonists of Bir1/2 domains of IAP-family anti-apoptotic proteins. [Related pubchem assays (depositor defined):AID1018, AID1449, AID1514, AID1638, AID1749, AID1750, AID488957, AID488963]
T4 sequence (P98170 whole entry): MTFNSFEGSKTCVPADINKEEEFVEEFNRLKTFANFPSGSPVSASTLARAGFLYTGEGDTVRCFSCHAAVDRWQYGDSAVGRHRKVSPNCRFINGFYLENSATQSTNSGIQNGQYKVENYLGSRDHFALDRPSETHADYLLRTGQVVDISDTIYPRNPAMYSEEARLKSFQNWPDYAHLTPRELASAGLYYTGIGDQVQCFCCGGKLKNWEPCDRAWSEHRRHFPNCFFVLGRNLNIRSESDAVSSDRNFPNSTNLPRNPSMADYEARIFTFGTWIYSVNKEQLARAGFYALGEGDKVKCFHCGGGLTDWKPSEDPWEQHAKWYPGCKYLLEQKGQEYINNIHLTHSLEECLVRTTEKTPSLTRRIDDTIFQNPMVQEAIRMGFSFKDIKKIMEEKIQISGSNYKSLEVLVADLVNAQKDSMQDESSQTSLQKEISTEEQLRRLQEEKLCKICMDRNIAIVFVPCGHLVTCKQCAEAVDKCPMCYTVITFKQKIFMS

[11] = molecular target: T4, E3 ubiquitin-protein ligase XIAP; assay: XIAP antagonists, biochemical, IAP family, fluorescence polarization (AID 1018); assay type: functional
Troponin, cardiac muscle = Troponin, cardiac muscle (Homo sapiens, UniProt P19429+P45379+P63316); assay: Fluorescence-based biochemical high throughput dose response assay for activators of the calcium sensitivity of cardiac Regulated Thin Filaments (RTF). [Related pubchem assays (depositor defined):AID493008, AID493018, AID504382, AID504383]; assay type: protein-complex assay
CHO = assay: cytotoxicity in TLR9-MyD88 CHO cells, dose response, cytotoxicity control for TLR9-MyD88 binding inhibitor project, cell-based, luminescence (AID 588339); assay type: functional, hamster; settings: Cricetulus griseus;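 further: CHO cells stably coexpressing TLR9 and MyD88 fusions from primary screen; compound exposure lasted 48 hours before viability readout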
[12] = NIH-3T3 fibroblast cytotoxicity, dose response, cytotoxicity control, cell-based, fluorescence, Alamar Blue, secondary assay (AID 2327); assay type: functional;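 further: NIH-3T3 mouse fibroblasts cultured with fluconazole at 8 µg/mL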
[13] = molecular target: T5, Luciferin 4-monooxygenase (Photinus pyralis, UniProt P08659); assay: Counter Screen for Luciferase-based Assay Positives. [Related pubchem assays: 620, 618, 411 ]
T5 sequence (P08659 whole entry): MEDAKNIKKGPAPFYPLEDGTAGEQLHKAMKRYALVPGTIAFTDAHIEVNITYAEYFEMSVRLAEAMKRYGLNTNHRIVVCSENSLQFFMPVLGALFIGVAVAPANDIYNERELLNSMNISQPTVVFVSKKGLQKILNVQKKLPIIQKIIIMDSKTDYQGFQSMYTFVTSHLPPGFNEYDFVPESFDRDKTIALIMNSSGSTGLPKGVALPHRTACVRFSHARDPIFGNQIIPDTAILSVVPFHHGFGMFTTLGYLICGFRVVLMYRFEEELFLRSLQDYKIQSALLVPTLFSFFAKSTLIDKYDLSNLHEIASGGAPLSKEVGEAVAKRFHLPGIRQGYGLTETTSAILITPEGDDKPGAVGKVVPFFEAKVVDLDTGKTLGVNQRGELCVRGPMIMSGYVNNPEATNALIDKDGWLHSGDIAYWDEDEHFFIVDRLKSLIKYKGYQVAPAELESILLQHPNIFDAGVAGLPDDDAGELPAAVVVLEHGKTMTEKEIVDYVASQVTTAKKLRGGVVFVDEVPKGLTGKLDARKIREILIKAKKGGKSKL

[14] = inhibitors of SNCA 5'UTR-driven reporter translation, confirmation, H4 neuroglioma cells, luminescence (AID 1988); assay type: functional, cell-based
[15] = C. albicans growth with fluconazole, confirmation, fluorescence, retest (AID 2467); assay type: functional, cell-based
HT-1080 = assay: cytotoxicity in HT1080 fibrosarcoma cells, cell-based, fluorescence readout (AID 620); assay type: functional; settings: Homo sapiens
[16] = THP-1 cell cytotoxicity, dose response, cytotoxicity control for non-replicating M. tuberculosis project (AID 489025); assay type: functional
[17] = HepG2 cell cytotoxicity, dose response, cytotoxicity control for non-replicating M. tuberculosis project (AID 489018); assay type: functional; settings: Mycobacterium tuberculosis
[18] = Vero E6 cell cytotoxicity, dose response, cytotoxicity control for non-replicating M. tuberculosis project, secondary assay (AID 492998); assay type: functional, VeroE6; settings: Vero C1008
cells [19] = assay type: functional
[20] = molecular target: Dual specificity protein kinase CLK1 (Homo sapiens, UniProt P49759); assay: CLK1 kinase inhibitors, off-target check, dose response, selectivity assay for Dyrk1A inhibitor project, biochemical, cherry-picked samples (AID 588811)
Chain of Dual specificity protein kinase CLK1 (P49759 whole entry): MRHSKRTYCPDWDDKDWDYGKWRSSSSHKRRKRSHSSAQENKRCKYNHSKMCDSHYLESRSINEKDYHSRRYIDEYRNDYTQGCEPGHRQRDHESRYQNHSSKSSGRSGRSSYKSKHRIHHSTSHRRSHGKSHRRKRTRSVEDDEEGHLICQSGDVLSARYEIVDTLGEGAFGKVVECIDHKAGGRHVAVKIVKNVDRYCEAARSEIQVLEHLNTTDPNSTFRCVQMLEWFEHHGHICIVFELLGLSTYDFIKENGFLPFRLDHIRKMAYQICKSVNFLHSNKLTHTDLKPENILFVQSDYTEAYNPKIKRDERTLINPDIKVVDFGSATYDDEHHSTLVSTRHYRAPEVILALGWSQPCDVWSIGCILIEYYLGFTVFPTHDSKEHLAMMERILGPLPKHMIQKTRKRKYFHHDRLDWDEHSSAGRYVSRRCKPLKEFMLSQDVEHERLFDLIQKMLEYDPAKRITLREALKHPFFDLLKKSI

[21] = molecular target: Dual specificity tyrosine-phosphorylation-regulated kinase 1A (Rattus norvegicus, UniProt Q63470); assay type: biochemical, Homo sapiens
[22] = molecular target: T6, Oxysterols receptor LXR-beta (Homo sapiens, UniProt P55055); assay type: functional, cell-based;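 further: Cell-based luminescence dose-response assay of agonist activity at LXR, run as a confirmatory counterscreen to a daf-12 agonist screen; HEK293 cells with Gal4-LXR fusion and GAL4-driven luciferase reporter; agonist potency from rising luciferase signal of a Gal4-LXR reporter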
T6 sequence (P55055 whole entry): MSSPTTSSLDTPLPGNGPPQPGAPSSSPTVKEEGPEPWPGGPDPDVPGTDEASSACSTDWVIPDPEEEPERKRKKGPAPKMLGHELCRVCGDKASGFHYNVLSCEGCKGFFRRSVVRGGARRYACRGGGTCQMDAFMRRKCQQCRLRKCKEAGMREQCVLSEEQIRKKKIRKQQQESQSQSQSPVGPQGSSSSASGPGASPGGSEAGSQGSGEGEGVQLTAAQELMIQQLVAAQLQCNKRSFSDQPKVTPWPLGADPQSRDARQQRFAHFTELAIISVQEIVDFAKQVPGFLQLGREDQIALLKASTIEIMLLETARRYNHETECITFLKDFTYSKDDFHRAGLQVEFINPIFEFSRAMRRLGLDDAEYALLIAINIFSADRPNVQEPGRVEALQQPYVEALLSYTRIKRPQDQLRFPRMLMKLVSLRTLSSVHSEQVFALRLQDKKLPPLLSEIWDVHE

cells [23] = assay: cells
Streptokinase A = molecular target: T7, Streptokinase A (Streptococcus pyogenes serotype M1, UniProt P10520); assay: S. pyogenes streptokinase expression inhibitors, potency, dose response, plasminogen activation absorbance, OD405 (AID 1914); assay type: functional, Streptococcus pyogenes M1 GAS;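 further: secreted streptokinase activity via plasminogen activation per viability signal from cell pellet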
T7 sequence (P10520 whole entry): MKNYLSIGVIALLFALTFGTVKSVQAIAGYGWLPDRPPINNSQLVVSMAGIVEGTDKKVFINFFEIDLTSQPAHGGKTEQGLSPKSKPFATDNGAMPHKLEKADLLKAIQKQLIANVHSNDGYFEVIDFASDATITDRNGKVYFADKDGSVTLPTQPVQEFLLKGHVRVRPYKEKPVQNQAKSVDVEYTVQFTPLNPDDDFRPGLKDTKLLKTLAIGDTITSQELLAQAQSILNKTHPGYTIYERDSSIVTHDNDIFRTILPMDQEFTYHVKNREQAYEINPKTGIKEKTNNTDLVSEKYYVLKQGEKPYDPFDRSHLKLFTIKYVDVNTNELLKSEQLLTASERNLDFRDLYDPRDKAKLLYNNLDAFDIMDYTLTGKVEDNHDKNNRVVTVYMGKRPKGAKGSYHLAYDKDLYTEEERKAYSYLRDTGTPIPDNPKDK

[24] = molecular target: T5, Luciferin 4-monooxygenase; assay: firefly luciferase enzyme inhibitors, dose response, biochemical, luminescence (AID 1891)
[25] = Luminescence Cell-Based Dose Confirmation HTS to Identify Inhibitors of Platelet Dense Granule Release. [Related pubchem assays: 1663 (Primary HTS), 1678 (Summary of Project)]; assay type: functional
Streptococcus = assay: Group A Streptococcus viability loss, dose response, counter-screen for streptokinase expression inhibitor project, luminescence, BacTiterGlo (AID 1915); assay type: functional, organism-based;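 further: potency for reduction of bacterial viability or growth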
[26] = molecular target: Heat shock protein HSP 90-alpha (Homo sapiens, UniProt P07900); assay type: functional, organism-based
HSP90 = HSP90 (Plasmodium falciparum 3D7, UniProt Q8IL32); assay type: functional, organism-based
Chain of HSP90 (Q8IL32 whole entry): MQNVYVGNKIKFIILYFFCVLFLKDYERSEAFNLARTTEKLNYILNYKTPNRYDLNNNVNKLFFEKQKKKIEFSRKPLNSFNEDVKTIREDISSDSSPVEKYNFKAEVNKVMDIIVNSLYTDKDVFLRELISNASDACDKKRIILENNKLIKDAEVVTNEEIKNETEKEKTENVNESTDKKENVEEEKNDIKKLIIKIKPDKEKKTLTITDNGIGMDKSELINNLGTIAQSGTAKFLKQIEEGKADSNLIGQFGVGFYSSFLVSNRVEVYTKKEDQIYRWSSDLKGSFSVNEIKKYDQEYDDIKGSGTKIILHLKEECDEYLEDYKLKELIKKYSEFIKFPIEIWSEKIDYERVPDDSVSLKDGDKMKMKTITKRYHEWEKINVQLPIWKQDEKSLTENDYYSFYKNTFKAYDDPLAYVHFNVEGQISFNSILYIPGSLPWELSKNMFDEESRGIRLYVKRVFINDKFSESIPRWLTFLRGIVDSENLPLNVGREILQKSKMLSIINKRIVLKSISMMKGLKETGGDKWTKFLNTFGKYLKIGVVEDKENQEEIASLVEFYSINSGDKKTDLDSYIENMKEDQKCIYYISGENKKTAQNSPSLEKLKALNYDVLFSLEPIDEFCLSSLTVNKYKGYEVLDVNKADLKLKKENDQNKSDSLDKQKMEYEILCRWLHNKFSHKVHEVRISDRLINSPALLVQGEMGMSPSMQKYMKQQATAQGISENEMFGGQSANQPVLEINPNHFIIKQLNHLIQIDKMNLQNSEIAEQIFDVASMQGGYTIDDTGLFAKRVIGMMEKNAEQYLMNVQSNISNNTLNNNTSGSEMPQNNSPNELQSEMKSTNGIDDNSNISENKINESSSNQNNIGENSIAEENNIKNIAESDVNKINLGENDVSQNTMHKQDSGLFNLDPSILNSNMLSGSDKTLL

[27] = inhibitors of cytokine-induced nitrite release, dose response, cell-based, Griess absorbance, INS-1E, dry powder, set 3 (AID 488870); assay type: functional; settings: Rattus norvegicus
INS1 = assay: inhibitors of cytokine-induced nitrite release, dose response, cell-based, Griess absorbance, INS-1E, dry powder, set 2 (AID 488868); assay type: functional; settings: Rattus norvegicus

Chain of Voltage-gated inwardly rectifying potassium channel KCNH2 (Q12809 whole entry): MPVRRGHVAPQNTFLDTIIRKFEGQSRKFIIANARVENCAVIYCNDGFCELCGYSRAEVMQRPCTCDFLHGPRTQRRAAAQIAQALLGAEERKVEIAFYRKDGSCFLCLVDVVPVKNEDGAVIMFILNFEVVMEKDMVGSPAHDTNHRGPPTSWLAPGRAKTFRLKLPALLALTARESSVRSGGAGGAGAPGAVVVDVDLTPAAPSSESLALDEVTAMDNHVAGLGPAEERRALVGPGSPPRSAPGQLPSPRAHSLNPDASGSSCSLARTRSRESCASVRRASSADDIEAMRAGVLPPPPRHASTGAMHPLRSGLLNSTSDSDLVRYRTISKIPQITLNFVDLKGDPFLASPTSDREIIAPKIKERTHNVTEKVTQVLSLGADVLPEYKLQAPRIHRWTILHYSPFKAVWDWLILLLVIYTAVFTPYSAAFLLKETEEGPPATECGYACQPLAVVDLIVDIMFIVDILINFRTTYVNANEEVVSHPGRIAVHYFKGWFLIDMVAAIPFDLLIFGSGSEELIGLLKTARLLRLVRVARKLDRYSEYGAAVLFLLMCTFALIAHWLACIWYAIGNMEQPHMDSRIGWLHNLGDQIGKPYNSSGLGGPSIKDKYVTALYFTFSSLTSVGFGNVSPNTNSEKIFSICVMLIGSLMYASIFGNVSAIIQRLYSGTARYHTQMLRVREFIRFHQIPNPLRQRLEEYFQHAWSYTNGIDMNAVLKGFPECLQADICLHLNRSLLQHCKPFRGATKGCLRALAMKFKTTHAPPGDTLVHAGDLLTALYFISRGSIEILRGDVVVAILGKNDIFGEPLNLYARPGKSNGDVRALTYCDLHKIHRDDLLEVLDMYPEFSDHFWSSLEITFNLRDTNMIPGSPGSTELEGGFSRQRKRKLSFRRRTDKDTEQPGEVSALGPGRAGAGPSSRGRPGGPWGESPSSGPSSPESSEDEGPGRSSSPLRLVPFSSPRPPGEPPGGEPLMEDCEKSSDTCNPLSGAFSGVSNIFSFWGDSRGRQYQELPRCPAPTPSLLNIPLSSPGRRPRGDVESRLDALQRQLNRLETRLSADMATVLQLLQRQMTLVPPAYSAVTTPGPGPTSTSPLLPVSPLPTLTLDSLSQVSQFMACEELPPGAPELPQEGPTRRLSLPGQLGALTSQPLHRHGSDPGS

O=C(OCCN1CCCCC1)c1c[nH]c2ccccc12
AC50 [1]: 20 µM (inconclusive)

CCCn1nc(NC(=O)c2cccs2)c2cc3cc(OC)ccc3nc21
AC50 [2]: 9.59 µM (active) | AC50 [3]: 0.445 µM (active)

COCCC(=O)N1CCN(c2ccccn2)CC1
AC50 (Candida albicans): 5.95 µM (active)

CN1C(=O)C(=C2CC(c3ccc(Cl)cc3)NN2)C(=O)N(C)C1=O (stereo not drawn)
IC50 [4]: 14.9 µM (active) | IC50 (Beta-galactosidase): > 66.6 µM (inactive) | EC50 [5]: > 260 µM (inactive) | IC50 (Apelin receptor): 7.22 µM (active) | IC50 [6]: 9.24 µM (inactive) | IC50 [7]: 5.84 µM (active)

Oc1nc(N/N=C\c2ccc(F)cc2)nc2ccccc12
EC50 [8]: 7.12 µM (active) | EC50 [9]: > 99 µM (inactive)

CCC1(C)OC(c2ccccc2)=C/C(=C/C=C2C(=O)NC(=O)NC2=O)O1 (stereo not drawn)
IC50 [10]: > 100 µM (inactive) | IC50 [11]: > 100 µM (not active) | EC50 (Troponin, cardiac muscle): 2.38 µM (active) | IC50 (CHO): > 49.7 µM (inactive)

Cc1cc(NCCCn2ccnc2)n2ncc(-c3ccc(Cl)cc3)c2n1
EC50 [12]: 21.8 µM (inconclusive) | EC50 [13]: 2.18 µM (active) | EC50 [14]: 9.97 µM (inconclusive) | EC50 [15]: 3.66 µM (active) | EC50 (HT-1080): 35 µM (active) | CC50 [16]: 22 µM (active) | CC50 [17]: > 20 µM (active) | CC50 [18]: 7.48 µM (active) | IC50 (cells [19]): 11.1 µM (active) | AC50 [20]: 5.5 µM (active) | AC50 [21]: 2.85 µM (active) | EC50 [22]: > 67.6 µM (inactive) | EC50 (cells [23]): > 67.6 µM (inactive)

COc1ccccc1/N=c1\oc2cc(O)ccc2cc1C(N)=O
EC50 (Streptokinase A): > 150 µM (not active) | EC50 [24]: 1.15 µM (active) | EC50 [25]: 3.1 µM (active) | EC50 (Streptococcus): 42 µM (active) | AC50 [26]: 17.3 µM (active) | AC50 (HSP90): 27.5 µM (active) | AC50 [21]: 0.139 µM (active)

C[C@@H]1CN([C@@H](C)CO)C(=O)c2cccc(NC(=O)Nc3cccc4ccccc34)c2O[C@H]1CN(C)S(=O)(=O)c1ccccc1F
AC50 [27]: 32.7 µM (active) | AC50 (INS1): 48.6 µM (active)

Reference: ChEMBL document CHEMBL1201862, “PubChem BioAssay data set” (2004)
